Experimental data: patent publication US20240307426A1, “USE OF SGLT-2 INHIBITORS FOR THE PREVENTION AND/OR TREATMENT OF RENAL DISEASES IN NON-HUMAN MAMMALS” (BOEHRINGER INGELHEIM VETMEDICA GMBH, priority 2021, published 2024)

Tested on: client owned cats with CKD (IRIS stage 3)
Assay: Exploratory clinical field study - cats (Example 1)
Format: in vivo, cat
Conditions: CKD IRIS stage 3, 0.1 mg/kg bodyweight orally once daily
Protocol: Client owned patients diagnosed with CKD (IRIS stage 3) diagnosed via physical examination and biomarker levels are orally treated once daily with velagliflozin 0.1 mg/kg bodyweight. During the study period the body weight, body condition score, biomarker levels (creatinine and SDMA), presence of concomitant conditions and need for further medication are examined on regular basis during the visits at the site by the investigator. The parameters examined are creatinine and SDMA levels, proteinuria, blood pressure, quality of life, and hydration status. Additionally, variables as the delayed onset of renal failure, survival time of the cat patients, IRiS stage progression and renal related mortality and/or morbidity are observed.

Structure (SMILES): N#Cc1ccc([C@@H]2O[C@H](CO)[C@@H](O)[C@H](O)[C@H]2O)cc1Cc1ccc(C2CC2)cc1 [velagliflozin, Velagliflozin]
- effect on renal function: beneficial effect on renal function
- progression of the disease: delay in progression of the disease
